Source: patent publication US20250228239A1, “MOLECULES HAVING PESTICIDAL UTILITY, AND INTERMEDIATES, COMPOSITIONS, AND PROCESSES, RELATED THERETO” (priority 2024, published 2025)
Like-named read-outs stand apart in the source and are kept apart here.

Key:
Assay type in all cases: in vivo
[1] = system: Beet Armyworm (Spodoptera exigua, LAPHEG); test: Bioassays on Beet Armyworm (BAW), 128-well diet tray assay; details: Spodoptera exigua
How it was run: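 Eight diet wells per compound were treated at 50 μg/cm^2 (acetone-water 90:10), dried, then infested with 1–5 second-instar larvae each. After five to seven days at 25 °C under 14:10 photoperiod, mortality was scored and averaged across wells.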

[2] = system: Cabbage Looper (Trichoplusia ni, TRIPNI); test: Bioassays on Cabbage Looper (CL), 128-well diet tray assay; details: Trichoplusia ni
How it was run: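 Diet tray, 2nd instar, 1–5 larvae/well; 50 μg/cm^2 compound surface-applied (acetone:water 90:10), dried; 8 wells/treatment; 25° C, 14:10 L:D, 5–7 d; % mortality, mean of 8 wells.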

[3] = system: Yellow Fever Mosquito (Aedes aegypti, AEDSAE); details: for YFM rating: Table ABC / ABC-DP rating
How it was run: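 Compounds from DMSO master plates (4000 ppm stock) diluted in 90:10 water/acetone, then dispensed into six replicate plates and infested with ~1-day-old Aedes aegypti larvae in liver-powder water. Held covered at room temperature for 3 days; each well scored for larval mortality and graded on a rating scale.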

[4] = Beet Armyworm, Table ABC / ABC-DP rating, read-out: BAW rating
[5] = Cabbage Looper, Table ABC / ABC-DP rating, read-out: CL rating
[6] = Table ABC: Biological Results, species BAW, read-out: BAW
[7] = Table ABC: Biological Results, species CL, read-out: CL
[8] = Table ABC: Biological Results, species YFM
[9] = Beet Armyworm, rating class, read-out: BAW
[10] = Cabbage Looper, rating class, read-out: CL
[11] = Yellow Fever Mosquito, rating class

SMILES: O=C(NCC(F)(F)C(F)(F)F)c1cc(NC(=O)[C@H]2[C@H](c3ccc(F)c(Cl)c3)C2(Cl)Cl)cc(F)c1Cl (relative stereo) [F2035, trans-2-Chloro-5-(2,2-dichloro-3-(3-chloro-4-fluorophenyl)cyclopropane-1-carboxamido)-3-fluoro-N-(2,2,3,3,3-pentafluoropropyl)benzamide]
- pest or weed control at 50 µg/cm2 [1, 4]: 50 to 100%
- pest or weed control at 50 µg/cm2 [2, 5]: 50 to 100%
- YFM rating ([3]; Yellow Fever Mosquito): A (80–100)

SMILES: Cc1c(F)cc(NC(=O)[C@H]2[C@H](c3ccc(F)c(Cl)c3)C2(Cl)Cl)cc1C(=O)NCC(F)(F)F (relative stereo) [F2063, trans-5-(2,2-Dichloro-3-(3-chloro-4-fluorophenyl)cyclopropane-1-carboxamido)-3-fluoro-2-methyl-N-(2,2,2-trifluoroethyl)benzamide]
- pest or weed control at 50 µg/cm2 [1, 4]: 50 to 100%
- pest or weed control at 50 µg/cm2 [2, 5]: 50 to 100%
- YFM rating ([3]; Yellow Fever Mosquito): A (80–100)

SMILES: CCC(F)(F)CNC(=O)c1cc(NC(=O)[C@H]2[C@H](c3cc(Cl)cc(Cl)c3)C2(Cl)Cl)cc(F)c1Cl (relative stereo) [F2088, trans-2-Chloro-5-(2,2-dichloro-3-(3,5-dichlorophenyl)cyclopropane-1-carboxamido)-N-(2,2-difluorobutyl)-3-fluorobenzamide]
- pest or weed control at 50 µg/cm2 [1, 4]: 50 to 100%
- pest or weed control at 50 µg/cm2 [2, 5]: 50 to 100%
- YFM rating ([3]; Yellow Fever Mosquito): B (More than 0 – Less than 80)

SMILES: CC(C)(C)OC(=O)N(C(=O)OC(C)(C)C)c1c(F)ccc(NC(=O)c2cc(NC(=O)[C@H]3[C@H](c4ccc(Cl)c(Cl)c4)C3(Cl)Cl)ccc2Cl)c1F [DP7, tert-Butyl-N-((tert-butoxy)carbonyl)-N-(3-(2-chloro-5-((1R,3R)-2,2-dichloro-3-(3,4-dichlorophenyl)cyclopropane-1-carboxamido)benzamido)-2,6-difluorophenyl)carbamate]
- mortality at 50 µg/cm2 ([1]; 168 h, second instar larvae, 50 μg/cm^2 of test molecule on artificial diet, 25° C., five to seven days, average of eight wells, read-out: BAW % Control (or Mortality) rating): 50 to 100%
- pest or weed control at 50 µg/cm2 [1, 4]: 50 to 100%
- mortality at 50 µg/cm2 ([2]; 168 h, second instar larvae, 50 μg/cm^2 of test molecule on artificial diet, 25° C., five to seven days, average of eight wells, read-out: CL % Control (or Mortality) rating): 0 to 50%
- pest or weed control at 50 µg/cm2 [2, 5]: 0 to 50%
- YFM % Control (or Mortality) rating ([3]; about 1 day-old larvae, 4000 ppm master solution diluted with 90:10 water/acetone, 15 μL per well plus 220 μL larval mixture, 3 days, mortality): D (No activity noticed in this bioassay)

SMILES: CCCN(C(=O)CC#N)c1c(F)ccc(NC(=O)c2cc(NC(=O)[C@H]3[C@H](c4ccc(F)c(C(F)(F)F)c4)C3(Cl)Cl)ccc2Cl)c1F [F1841, 2-Chloro-N-(3-(2-cyano-N-propylacetamido)-2,4-difluorophenyl)-5-((1R,3R)-2,2-dichloro-3-(4-fluoro-3-(trifluoromethyl)phenyl)cyclopropane-1-carboxamido)benzamide]
- pest or weed control at 50 µg/cm2 [1, 4]: 50 to 100%
- pest or weed control at 50 µg/cm2 [2, 5]: 50 to 100%
- YFM rating ([3]; Yellow Fever Mosquito): A (80–100)

SMILES: C=C(F)c1cc(NC(=O)c2cc(NC(=O)[C@H]3[C@H](c4cc(Cl)cc(Cl)c4)C3(Cl)Cl)ccc2Cl)cc(F)c1F (relative stereo) [F1323, trans-2-Chloro-5-(2,2-dichloro-3-(3,5-dichlorophenyl)cyclopropane-1-carboxamido)-N-(3,4-difluoro-5-(1-fluorovinyl)phenyl)benzamide]
- pest or weed control at 50 µg/cm2 [1, 6]: 50 to 100%
- pest or weed control at 50 µg/cm2 [2, 7]: 50 to 100%
- YFM [3, 8]: A (80–100)

SMILES: CCOC(C)C(=O)Nc1c(F)ccc(N(C)C(=O)c2cc(NC(=O)[C@H]3[C@H](c4ccc(F)c(C(F)(F)F)c4)C3(Cl)Cl)ccc2Cl)c1F (stereo partly drawn) [F1797, 2-Chloro-5-((1R,3R)-2,2-dichloro-3-(4-fluoro-3-(trifluoromethyl)phenyl)cyclopropane-1-carboxamido)-N-(3-(2-ethoxypropanamido)-2,4-difluorophenyl)-N-methylbenzamide]
- pest or weed control at 50 µg/cm2 [1, 4]: 50 to 100%
- pest or weed control at 50 µg/cm2 [2, 5]: 50 to 100%
- YFM rating ([3]; Yellow Fever Mosquito): A (80–100)

SMILES: CCN(C(=O)C(F)F)c1c(F)ccc(NC(=O)c2cc(NC(=O)[C@H]3[C@H](c4ccc(F)c(C(F)(F)F)c4)C3(Cl)Cl)ccc2Cl)c1F [F1452, 2-Chloro-5-((1R,3R)-2,2-dichloro-3-(4-fluoro-3-(trifluoromethyl)phenyl)cyclopropane-1-carboxamido)-N-(3-(N-ethyl-2,2-difluoroacetamido)-2,4-difluorophenyl)benzamide]
- pest or weed control at 50 µg/cm2 [1, 9]: 50 to 100%
- pest or weed control at 50 µg/cm2 [2, 10]: 50 to 100%
- YFM [3, 11]: A (80–100)

SMILES: O=C(Nc1ccccc1)c1c(Cl)ccc(NC(=O)[C@H]2[C@H](c3ccc(F)c(Cl)c3)C2(Cl)Cl)c1F [F1466, 6-Chloro-3-((1R,3R)-2,2-dichloro-3-(3-chloro-4-fluorophenyl)cyclopropane-1-carboxamido)-2-fluoro-N-phenylbenzamide]
- pest or weed control at 50 µg/cm2 [1, 9]: 50 to 100%
- pest or weed control at 50 µg/cm2 [2, 10]: 50 to 100%
- YFM [3, 11]: A (80–100)

SMILES: CN(NC(=O)c1cc(NC(=O)[C@H]2[C@H](c3cc(Cl)cc(Cl)c3)C2(Cl)Cl)ccc1Cl)C(=O)C1(C#N)CC1 (relative stereo) [F2525, trans-2,2-Dichloro-N-(4-chloro-3-(2-(1-cyanocyclopropane-1-carbonyl)-2-methylhydrazine-1-carbonyl)phenyl)-3-(3,5-dichlorophenyl)cyclopropane-1-carboxamide]
- pest or weed control at 50 µg/cm2 [1, 4]: 50 to 100%
- pest or weed control at 50 µg/cm2 [2, 5]: 50 to 100%
- YFM rating ([3]; Yellow Fever Mosquito): A (80–100)

SMILES: CN(C(=O)c1cc(NC(=O)[C@H]2[C@H](c3ccc(F)c(C(F)(F)F)c3)C2(Cl)Cl)ccc1Cl)c1ccc(F)c(NC(=O)C(F)(F)F)c1F [F1795, 2-Chloro-5-((1R,3R)-2,2-dichloro-3-(4-fluoro-3-(trifluoromethyl)phenyl)cyclopropane-1-carboxamido)-N-(2,4-difluoro-3-(2,2,2-trifluoroacetamido)phenyl)-N-methylbenzamide]
- pest or weed control at 50 µg/cm2 [1, 4]: 50 to 100%
- pest or weed control at 50 µg/cm2 [2, 5]: 50 to 100%
- YFM rating ([3]; Yellow Fever Mosquito): A (80–100)

SMILES: O=C(CCNC(=O)c1cc(NC(=O)[C@H]2[C@H](c3cc(Cl)cc(Cl)c3)C2(Cl)Cl)ccc1Cl)NCCC(F)(F)F (relative stereo) [F2092, trans-2-Chloro-5-(2,2-dichloro-3-(3,5-dichlorophenyl)cyclopropane-1-carboxamido)-N-(3-oxo-3-(3,3,3-trifluoropropylamino)propyl)benzamide]
- pest or weed control at 50 µg/cm2 [1, 4]: 50 to 100%
- pest or weed control at 50 µg/cm2 [2, 5]: 50 to 100%
- YFM rating ([3]; Yellow Fever Mosquito): B (More than 0 – Less than 80)

SMILES: O=C(Nc1ccc(F)c(NC(=O)C(F)F)c1F)c1cc(NC(=O)[C@H]2[C@H](c3cccc(I)c3)C2(Cl)Cl)ccc1Cl (relative stereo) [F1281, trans-2-chloro-5-(2,2-dichloro-3-(3-iodophenyl)cyclopropane-1-carboxamido)-N-(3-(2,2-difluoroacetamido)-2,4-difluorophenyl)benzamide]
- pest or weed control at 50 µg/cm2 [1, 6]: 50 to 100%
- pest or weed control at 50 µg/cm2 [2, 7]: 50 to 100%
- YFM [3, 8]: A (80–100)

SMILES: CC(=O)CNC(=O)c1cc(NC(=O)[C@H]2[C@H](c3cc(Cl)cc(Cl)c3)C2(Cl)Cl)cc(F)c1Cl (relative stereo) [F2090, trans-2-Chloro-5-(2,2-dichloro-3-(3,5-dichlorophenyl)cyclopropane-1-carboxamido)-3-fluoro-N-(2-oxopropyl)benzamide]
- pest or weed control at 50 µg/cm2 [1, 4]: 50 to 100%
- pest or weed control at 50 µg/cm2 [2, 5]: 50 to 100%
- YFM rating ([3]; Yellow Fever Mosquito): A (80–100)

SMILES: O=C(Nc1ccc(F)c(NC(=O)C(F)F)c1F)c1cc(NC(=O)[C@H]2[C@H](c3ccc(Cl)cc3)C2(Cl)Cl)ccc1Cl (relative stereo) [F1599, trans-2-Chloro-5-(2,2-dichloro-3-(4-chlorophenyl)cyclopropane-1-carboxamido)-N-(3-(2,2-difluoroacetamido)-2,4-difluorophenyl)benzamide]
- pest or weed control at 50 µg/cm2 [1, 9]: 50 to 100%
- pest or weed control at 50 µg/cm2 [2, 10]: 50 to 100%
- YFM [3, 11]: A (80–100)

SMILES: O=C(Nc1ccc(F)c(NS(=O)(=O)c2ccccc2)c1F)c1cc(NC(=O)[C@H]2[C@H](c3ccc(F)c(C(F)(F)F)c3)C2(Cl)Cl)ccc1Cl [F1295, 2-chloro-5-((1R,3R)-2,2-dichloro-3-(4-fluoro-3-(trifluoromethyl)phenyl)cyclopropane-1-carboxamido)-N-(2,4-difluoro-3-(phenylsulfonamido)phenyl)benzamide]
- pest or weed control at 50 µg/cm2 [1, 6]: 50 to 100%
- pest or weed control at 50 µg/cm2 [2, 7]: 50 to 100%
- YFM [3, 8]: A (80–100)

SMILES: Nc1ccc(F)c(NC(=O)c2cc(NC(=O)[C@H]3[C@H](c4ccc(F)c(C(F)(F)F)c4)C3(Cl)Cl)ccc2Cl)c1F [F1391, N-(3-Amino-2,6-difluorophenyl)-2-chloro-5-((1R,3R)-2,2-dichloro-3-(4-fluoro-3-(trifluoromethyl)phenyl)cyclopropane-1-carboxamido)benzamide]
- pest or weed control at 50 µg/cm2 [1, 6]: 50 to 100%
- pest or weed control at 50 µg/cm2 [2, 7]: 50 to 100%
- YFM [3, 8]: A (80–100)

SMILES: O=C(CCC(F)(F)C(F)(F)F)Nc1c(F)ccc(NC(=O)c2cc(NC(=O)[C@H]3[C@H](c4ccc(F)c(C(F)(F)F)c4)C3(Cl)Cl)ccc2Cl)c1F [F1844, 2-Chloro-5-((1R,3R)-2,2-dichloro-3-(4-fluoro-3-(trifluoromethyl)phenyl)cyclopropane-1-carboxamido)-N-(2,4-difluoro-3-(4,4,5,5,5-pentafluoropentanamido)phenyl)benzamide]
- pest or weed control at 50 µg/cm2 [1, 4]: 50 to 100%
- pest or weed control at 50 µg/cm2 [2, 5]: 50 to 100%
- YFM rating ([3]; Yellow Fever Mosquito): A (80–100)
